Source: patent publication US4689345A, “Oxygenated alkyl substituted bicyclo alkanes” (CBD Corporation, priority 1986, dated 1987)
Where two headings read alike, the source gives them in different places.

Legend:
androgen receptor [1] = test: Androgen receptor inhibition, Actinomyces; assay type: binding
androgen receptor [2] = test: Androgen receptor inhibition, Trichophyton; assay type: binding
androgen receptor [3] = test: Androgen receptor inhibition, Candida; assay type: binding
progesterone receptor [4] = test: Progesterone receptor inhibition, Coccodia; assay type: binding
progesterone receptor [5] = test: Progesterone receptor inhibition, Cryptococci; assay type: binding
estrogen receptor [6] = test: Estrogen receptor inhibition, Sporotrichum; assay type: binding
estrogen receptor [7] = test: Estrogen receptor inhibition, Fulsarium gravarium; assay type: binding
From the text: (§1) In the second series of experiments using the compound of the invention 2-(5-hydroxyhept-1-yl) bicyclo[3.3.0]octan-7-one {hexahydro-4-(5-hydroxyheptyl)-2-(1H)-pentalenone} upon zeralenone and zearalanol production, zearalenone and zearalanol were chemically obtained from Sigma Chemical Co., St. Louis, Mo.

androgen receptor [8] = test: Androgen receptor inhibition, Cryptococci; assay type: binding
estrogen receptor [9] = test: Estrogen receptor inhibition, Coccodia; assay type: binding
androgen receptor [10] = test: Androgen receptor inhibition, Saccharomyces cerevisiae strains; conditions: DHT:anti-androgen 1:1,000
progesterone receptor [11] = assay type: binding; conditions: Histoplasma
progesterone receptor [12] = test: Progesterone receptor inhibition, Trichophyton; assay type: binding
estrogen receptor [13] = test: Estrogen receptor inhibition, Norcardia; assay type: binding
androgen receptor [14] = test: Androgen receptor inhibition, Fulsarium gravarium; assay type: binding
From the text: as §1

androgen receptor [15] = test: Androgen receptor inhibition, Norcardia; assay type: binding
androgen receptor [16] = test: Androgen receptor inhibition, Sporotrichum; assay type: binding
estrogen receptor [17] = test: Effect on estrogen receptors in melanoma; assay type: binding; conditions: 1:1000 DHT to compound
[18] = tested on: collagen:elastin formation; test: Collagen synthesized and elastic increase compared to control, by patient; assay type: cell-based, human; conditions: anti-androgen to DHT 1,000:1
keloid = test: Suppression of keloid formation; design: species or system human
[19] = tested on: estrogen receptor (keloid cytosol); test: Keloid cytosol steroid binding assay, estrogen; design: species or system human
[20] = target: T1, progesterone receptor (keloid cytosol) (Homo sapiens, UniProt P06401); test: Keloid cytosol steroid binding assay, progesterone
T1 construct: [3H]promegestone (R5020) tracer

hard fibrous band = test: Hard fibrous band formation around breast implants following augmentation surgery; design: species or system human
From the text: "Hard fibrous band" formation was retarded around breast implants following augmentation surgery.

T1 sequence (P06401 whole entry): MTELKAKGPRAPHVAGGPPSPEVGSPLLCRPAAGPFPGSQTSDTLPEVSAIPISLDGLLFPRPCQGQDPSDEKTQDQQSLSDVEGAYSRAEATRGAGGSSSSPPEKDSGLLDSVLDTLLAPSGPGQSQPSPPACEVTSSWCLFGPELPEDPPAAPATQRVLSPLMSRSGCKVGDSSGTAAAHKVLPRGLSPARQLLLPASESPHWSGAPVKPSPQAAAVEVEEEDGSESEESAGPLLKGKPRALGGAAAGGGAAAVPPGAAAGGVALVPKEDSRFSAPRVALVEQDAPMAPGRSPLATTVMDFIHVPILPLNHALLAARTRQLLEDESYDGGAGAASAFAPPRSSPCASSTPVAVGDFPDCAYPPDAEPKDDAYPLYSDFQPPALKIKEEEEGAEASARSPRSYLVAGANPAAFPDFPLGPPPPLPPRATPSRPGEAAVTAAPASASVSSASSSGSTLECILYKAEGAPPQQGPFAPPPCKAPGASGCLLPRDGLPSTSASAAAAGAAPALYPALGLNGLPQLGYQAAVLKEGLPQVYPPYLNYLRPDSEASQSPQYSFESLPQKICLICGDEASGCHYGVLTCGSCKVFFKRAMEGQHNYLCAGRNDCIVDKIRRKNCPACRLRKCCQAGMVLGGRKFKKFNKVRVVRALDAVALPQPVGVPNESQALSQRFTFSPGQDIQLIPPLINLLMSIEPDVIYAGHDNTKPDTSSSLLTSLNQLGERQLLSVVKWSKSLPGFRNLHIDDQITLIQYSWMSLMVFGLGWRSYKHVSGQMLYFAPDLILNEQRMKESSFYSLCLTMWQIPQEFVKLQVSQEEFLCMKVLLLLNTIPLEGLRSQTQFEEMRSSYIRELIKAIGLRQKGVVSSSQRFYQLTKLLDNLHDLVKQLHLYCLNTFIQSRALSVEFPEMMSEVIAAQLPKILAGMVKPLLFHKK

CCC(O)CCCCC1CCC2CC(=O)CC12 (centres unmarked) [Compound IV]
% Androgen Receptor Inhibition (androgen receptor [1]): 90% | % Androgen Receptor Inhibition (androgen receptor [2]): 81% | % Androgen Receptor Inhibition (androgen receptor [3]): 92% | % Progesterone Receptor Inhibition (progesterone receptor [4]): 4% | % Progesterone Receptor Inhibition (progesterone receptor [5]): 4% | % Estrogen Receptor Inhibition (estrogen receptor [6]): 0% | % Estrogen Receptor Inhibition (estrogen receptor [7]; DHT:anti-androgen 1:1): 0% | % Estrogen Receptor Inhibition (estrogen receptor [7]; DHT:anti-androgen 1:10): 0% | % Estrogen Receptor Inhibition (estrogen receptor [7]; DHT:anti-androgen 1:100): 0% | % Estrogen Receptor Inhibition (estrogen receptor [7]; DHT:anti-androgen 1:1,000): 0% | % Androgen Receptor Inhibition (androgen receptor [8]): 76% | % Estrogen Receptor Inhibition (estrogen receptor [9]): 0% | % Androgen Receptor Inhibition (androgen receptor [10]; strain 1): 16% | % Androgen Receptor Inhibition (androgen receptor [10]; strain 2): 37% | % Androgen Receptor Inhibition (androgen receptor [10]; strain 3): 92% | % Androgen Receptor Inhibition (androgen receptor [10]; strain 4): 76% | % Androgen Receptor Inhibition (androgen receptor [10]; strain 5): 39% | % Androgen Receptor Inhibition (androgen receptor [10]; strain 6): 59% | % Androgen Receptor Inhibition (androgen receptor [10]; strain 7): 87% | % Progesterone Receptor Inhibition (progesterone receptor [11]): 0% | % Progesterone Receptor Inhibition (progesterone receptor [12]): 7% | % Estrogen Receptor Inhibition (estrogen receptor [13]): 0% | % Androgen Receptor Inhibition (androgen receptor [14]; DHT:anti-androgen 1:1): 26% | % Androgen Receptor Inhibition (androgen receptor [14]; DHT:anti-androgen 1:10): 49% | % Androgen Receptor Inhibition (androgen receptor [14]; DHT:anti-androgen 1:100): 67% | % Androgen Receptor Inhibition (androgen receptor [14]; DHT:anti-androgen 1:1,000): 87% | % Androgen Receptor Inhibition (androgen receptor [15]): 50% | % Androgen Receptor Inhibition (androgen receptor [16]): 29%

CCC(CCCCC1CCC2CC(=O)CC12)OC (centres unmarked) [Compound V, 2-(5-Methoxyhept-1-yl)bicyclo[3.3.0]octan-7-one]
effect on estrogen receptors in melanoma tissue (estrogen receptor [17]): no significant effect | Fold Elastic Increase Compared to Control ([18]; patient 1): 1.4 Fold | Fold Elastic Increase Compared to Control ([18]; patient 2): 4.7 Fold | Fold Elastic Increase Compared to Control ([18]; patient 3): 2.0 Fold | Fold Elastic Increase Compared to Control ([18]; patient 4): 4.0 Fold | Fold Elastic Increase Compared to Control ([18]; patient 5): 6.0 Fold | Fold Elastic Increase Compared to Control ([18]; patient 6): 2.0 Fold | Fold Elastic Increase Compared to Control ([18]; patient 7): 3.0 Fold | Fold Elastic Increase Compared to Control ([18]; patient 8): 3.0 Fold | Fold Elastic Increase Compared to Control ([18]; patient 9): 4.0 Fold | Fold Elastic Increase Compared to Control ([18]; patient 10): 6.0 Fold | Fold Elastic Increase Compared to Control ([18]; patient 11): 3.0 Fold | keloid formation (keloid): suppression of keloid formation | effect on binding of estrogen [19]: no effect | effect on binding of progesterone [20]: no effect | hard fibrous band formation around breast implants (hard fibrous band): retarded
